# Results reported in US8959984B2, “Proteome-wide quantification of small molecule binding to cellular target proteins” (priority 2007, dated 2015).
# Several values for one entry are separate records, joined by “and”; a condition that tells them apart may be missing. Equal values may be shown once.
# Columns and labels:
# Assay in all cases: binding to AX14596 beads (HeLa lysate, SILAC MS)
# EGFR = target: T1, EGFR (Homo sapiens, UniProt P00533)
# T1 construct: endogenous in cells; host or cells: HeLa S3
# T1 sequence (P00533 25-1210): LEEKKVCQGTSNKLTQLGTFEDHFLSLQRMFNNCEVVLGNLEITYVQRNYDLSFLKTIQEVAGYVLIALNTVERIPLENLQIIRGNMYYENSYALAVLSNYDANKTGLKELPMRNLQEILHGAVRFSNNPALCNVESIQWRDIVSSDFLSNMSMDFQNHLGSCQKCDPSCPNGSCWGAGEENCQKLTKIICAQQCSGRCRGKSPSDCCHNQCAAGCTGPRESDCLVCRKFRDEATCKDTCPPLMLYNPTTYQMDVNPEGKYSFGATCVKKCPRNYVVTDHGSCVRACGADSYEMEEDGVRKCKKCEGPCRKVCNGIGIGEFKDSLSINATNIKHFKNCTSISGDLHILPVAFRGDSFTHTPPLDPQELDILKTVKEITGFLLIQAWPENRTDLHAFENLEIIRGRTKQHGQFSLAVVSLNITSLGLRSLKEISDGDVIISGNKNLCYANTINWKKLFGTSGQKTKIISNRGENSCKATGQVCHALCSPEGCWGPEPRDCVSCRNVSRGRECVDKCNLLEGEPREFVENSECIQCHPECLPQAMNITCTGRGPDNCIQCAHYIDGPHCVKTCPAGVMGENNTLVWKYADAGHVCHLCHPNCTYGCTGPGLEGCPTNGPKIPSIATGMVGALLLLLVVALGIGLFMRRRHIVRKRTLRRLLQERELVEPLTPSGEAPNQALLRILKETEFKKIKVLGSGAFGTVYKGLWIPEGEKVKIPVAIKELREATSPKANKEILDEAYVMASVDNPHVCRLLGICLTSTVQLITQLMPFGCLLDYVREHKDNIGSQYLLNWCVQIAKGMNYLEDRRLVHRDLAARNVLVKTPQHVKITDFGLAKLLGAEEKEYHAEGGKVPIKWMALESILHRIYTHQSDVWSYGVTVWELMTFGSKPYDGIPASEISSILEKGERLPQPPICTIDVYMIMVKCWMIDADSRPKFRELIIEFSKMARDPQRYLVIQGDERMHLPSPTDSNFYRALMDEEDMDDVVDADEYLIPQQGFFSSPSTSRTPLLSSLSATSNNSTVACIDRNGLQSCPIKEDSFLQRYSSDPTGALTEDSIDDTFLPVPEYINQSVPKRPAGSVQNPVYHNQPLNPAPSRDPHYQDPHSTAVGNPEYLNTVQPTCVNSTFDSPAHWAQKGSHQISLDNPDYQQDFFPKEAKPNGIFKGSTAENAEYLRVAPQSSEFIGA
# Experimental: (§1) Differentially SILAC-encoded cell lysates were either incubated with the inhibitor beads displaying immobilized AX14596 or control resin devoid of ligand. In parallel, the supernatant from the first binding step was subjected to a second incubation with the AX14596 resin (FIG. 4). The resulting three elution fractions were combined, resolved by gel electrophoresis, proteolytically digested and the relative abundance of the retained proteins quantified. Proteins showing considerable binding to the control resin were identified as non-specific interactors and therefore not considered further. […] These target-specific ratios were similar in “label switch” experiments (FIGS. 6a and 6c). The binding equilibrium was determined in parallel control SILAC experiments as well as the excess of the immobilized compound over its cellular targets, the excess preferably being a molar excess (FIG. 7 and FIG. 8).
# (§2) Cysteine carbamidomethylation was set as a fixed modification and N-acetyl protein and oxidized methionine were allowed as variable modifications. Spectra that were determined to result from heavy labeled peptides in the pre-search detection of SILAC partners by MaxQuant were searched with the fixed modifications Lys^4, Lys^8, Arg^6 and Arg^10, whereas MS/MS spectra for which no SILAC state could be assigned before database searching were searched with Lys^4, Lys^8, Arg^6 and Arg^10 as variable modifications. The mass tolerance was set to 5 ppm for monoisotopic precursor ions and to 0.5 Da for MS/MS peaks. The minimum peptide length was set to 6 amino acids and up to three missed cleavages and three isotopically labeled amino acids were permitted per peptide. The accepted false discovery rate (FDR) was 1% for the proteins and peptides. The cut-off for the posterior error probability (PEP) of peptides was set to 10%. Peptide PEPs were determined by generating Mascot score and peptide-length-dependent histograms for both the forward and the reverse hits and then deriving the probability of a false identification for a given top-scoring peptide using Bayes' theorem. The PEPs of peptides belonging to the same proteins were then multiplied. Each peptide sequence was considered only once with the lowest PEP determined in case of multiple sequencing of the same isotopic pattern or of peptide species with different SILAC, charge or modification states. Proteins were then sorted according to their products of their peptide PEPs and included until a FDR of 1% was reached according to the fraction of reverse proteins contained in the protein list. In addition to the FDR threshold applied for protein identification, proteins were only included when they were identified with at least two peptides (of which one was required to be unique for the protein) and quantified if at least on quantifiable SILAC pair was associated with them. Outliers were not removed as protein ratios were calculated as the median instead of the average of all peptide ratios. For peptides shared among different identified proteins, SILAC ratios were only considered for the ratio of the protein identified with the highest number of unique peptides. Protein ratios for the different in vitro association experiments were corrected for the initial SILAC pooling ratio, which was determined from the median of protein ratios in pooled SILAC-encoded cell extracts.
# GAK = target: T2, GAK (Homo sapiens, UniProt O14976)
# T2 sequence (O14976 1-1311): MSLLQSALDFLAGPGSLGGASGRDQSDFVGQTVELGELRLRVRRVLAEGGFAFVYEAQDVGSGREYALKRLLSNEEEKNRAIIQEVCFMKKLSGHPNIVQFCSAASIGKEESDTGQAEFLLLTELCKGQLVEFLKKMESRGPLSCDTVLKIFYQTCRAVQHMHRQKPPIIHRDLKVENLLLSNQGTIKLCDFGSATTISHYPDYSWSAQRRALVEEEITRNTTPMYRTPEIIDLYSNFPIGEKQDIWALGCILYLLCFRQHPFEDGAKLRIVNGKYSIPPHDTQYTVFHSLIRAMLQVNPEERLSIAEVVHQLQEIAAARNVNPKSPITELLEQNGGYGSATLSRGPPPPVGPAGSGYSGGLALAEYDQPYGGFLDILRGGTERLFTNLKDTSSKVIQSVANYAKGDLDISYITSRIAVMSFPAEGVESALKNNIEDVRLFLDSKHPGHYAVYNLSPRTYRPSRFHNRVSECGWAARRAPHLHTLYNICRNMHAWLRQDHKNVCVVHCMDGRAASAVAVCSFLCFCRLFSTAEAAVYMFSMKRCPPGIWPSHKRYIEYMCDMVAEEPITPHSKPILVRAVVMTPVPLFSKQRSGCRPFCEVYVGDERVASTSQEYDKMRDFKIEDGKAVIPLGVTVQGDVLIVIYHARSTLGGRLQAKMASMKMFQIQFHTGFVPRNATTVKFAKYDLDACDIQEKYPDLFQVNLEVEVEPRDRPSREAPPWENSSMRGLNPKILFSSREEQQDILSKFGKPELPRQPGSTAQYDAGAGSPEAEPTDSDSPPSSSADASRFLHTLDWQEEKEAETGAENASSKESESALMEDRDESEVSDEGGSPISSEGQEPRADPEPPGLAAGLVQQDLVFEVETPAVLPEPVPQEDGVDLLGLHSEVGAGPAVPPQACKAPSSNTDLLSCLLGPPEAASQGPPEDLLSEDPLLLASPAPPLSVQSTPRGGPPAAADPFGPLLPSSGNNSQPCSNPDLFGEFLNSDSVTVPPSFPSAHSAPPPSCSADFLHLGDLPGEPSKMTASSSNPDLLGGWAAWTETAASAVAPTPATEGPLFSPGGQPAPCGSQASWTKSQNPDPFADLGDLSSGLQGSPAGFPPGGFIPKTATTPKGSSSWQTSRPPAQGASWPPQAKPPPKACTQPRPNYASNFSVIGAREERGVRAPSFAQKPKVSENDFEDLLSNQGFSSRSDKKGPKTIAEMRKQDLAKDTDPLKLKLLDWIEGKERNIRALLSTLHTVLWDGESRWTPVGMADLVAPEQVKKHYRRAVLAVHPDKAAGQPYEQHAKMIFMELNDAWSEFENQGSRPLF
# Experimental: as §1, §2
# CDA = target: T3, CDA (Homo sapiens, UniProt P32320)
# T3 construct: endogenous in cells; host or cells: HeLa S3
# T3 sequence (P32320 whole entry): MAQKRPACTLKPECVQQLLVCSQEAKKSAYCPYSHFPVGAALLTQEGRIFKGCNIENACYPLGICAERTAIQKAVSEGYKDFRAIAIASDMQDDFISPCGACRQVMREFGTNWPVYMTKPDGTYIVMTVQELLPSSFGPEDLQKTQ
# Experimental: as §1, §2
structure (smiles),measurement,setting,value
COc1cc2ncnc(Nc3ccc(F)c(Cl)c3)c2cc1OCCCN [AX14596],Ki,EGFR,44 µM and 44.5 µM
same,r (3 mg/1 mg lysate),EGFR,2.65
same,r (5 h/2.5 h inc. time),EGFR,0.90
same,rAVERAGE (2. inc/1. inc),EGFR,0.31
same,rAVERAGE (control/1. inc),EGFR,0.03
same,% BOUND,EGFR; bound to AX14596 beads,69%
same,Ki,GAK,82 µM and 82.1 µM
same,r (3 mg/1 mg lysate),GAK,2.59
same,r (5 h/2.5 h inc. time),GAK,1.05
same,rAVERAGE (2. inc/1. inc),GAK,0.45
same,rAVERAGE (control/1. inc),GAK,0.04
same,% BOUND,GAK; bound to AX14596 beads,55%
same,Ki,CDA,402 µM
same,r (3 mg/1 mg lysate),CDA,3.09
same,rAVERAGE (2. inc/1. inc),CDA,0.80
same,rAVERAGE (control/1. inc),CDA,0.09
